In US8552024B2, “Azacyclic compounds” (Hoffman-La Roche Inc., priority 2011, dated 2013):

Target: T1, human HSL (Homo sapiens, UniProt Q05469)
T1 construct: overlapping PCR to generate a full length human HSL ORF with a 3′-His6 tag; made in house; host or cells: High 5 insect cells (baculovirus, pFast-BAC)
T1 sequence (Q05469 1-1076): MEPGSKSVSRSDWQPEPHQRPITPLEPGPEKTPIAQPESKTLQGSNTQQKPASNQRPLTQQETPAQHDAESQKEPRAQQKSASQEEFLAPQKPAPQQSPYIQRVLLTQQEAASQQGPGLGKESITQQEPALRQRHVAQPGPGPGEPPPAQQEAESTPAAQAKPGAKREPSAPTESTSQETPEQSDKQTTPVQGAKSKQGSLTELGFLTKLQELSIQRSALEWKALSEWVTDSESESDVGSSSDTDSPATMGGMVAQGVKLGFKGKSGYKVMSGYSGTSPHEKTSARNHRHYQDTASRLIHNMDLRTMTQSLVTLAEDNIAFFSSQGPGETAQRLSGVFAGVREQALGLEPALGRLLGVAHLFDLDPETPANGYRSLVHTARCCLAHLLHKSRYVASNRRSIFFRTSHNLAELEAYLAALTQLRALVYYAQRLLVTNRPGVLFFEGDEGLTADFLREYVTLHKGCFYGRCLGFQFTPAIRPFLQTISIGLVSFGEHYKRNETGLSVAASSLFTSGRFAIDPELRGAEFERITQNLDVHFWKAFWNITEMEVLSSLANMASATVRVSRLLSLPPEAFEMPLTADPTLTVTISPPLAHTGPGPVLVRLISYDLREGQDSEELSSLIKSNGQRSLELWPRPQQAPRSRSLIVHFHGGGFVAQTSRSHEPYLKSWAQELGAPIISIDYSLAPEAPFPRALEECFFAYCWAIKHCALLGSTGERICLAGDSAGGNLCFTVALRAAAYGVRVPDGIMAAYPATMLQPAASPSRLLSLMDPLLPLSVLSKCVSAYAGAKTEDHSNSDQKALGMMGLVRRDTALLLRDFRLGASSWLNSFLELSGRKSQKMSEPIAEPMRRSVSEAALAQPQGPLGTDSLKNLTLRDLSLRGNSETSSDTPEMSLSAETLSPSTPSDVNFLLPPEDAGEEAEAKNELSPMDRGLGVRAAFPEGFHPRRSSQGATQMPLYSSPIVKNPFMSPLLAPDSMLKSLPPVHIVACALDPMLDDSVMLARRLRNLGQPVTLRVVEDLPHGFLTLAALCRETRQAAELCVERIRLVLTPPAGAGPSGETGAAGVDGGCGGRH
Experiment: Human Hormone-Sensitive Lipase (HSL) enzyme inhibition assay (colorimetric, DMPT substrate)
Assay type: biochemical
Conditions: human full length HSL-His6; substrate 2,3-dimercapto-1-propanol tributyrate; 37° C., 20 minutes; absorbance at 405 nm; read-out: HSL hum IC50
Procedure: Production of Human full length Hormone Sensitive Lipase-His^6:
1) Cloning: cDNA was prepared from commercial human brain polyA+ RNA and used as a template in overlapping PCR to generate a full length human HSL ORF with a 3′-His6 tag. This full length insert was cloned into the pFast-BAC vector and the DNA-sequence of several single clones was verified. DNA from a correct full length clone with the 3′His6 tag was used to transform the E. coli strain DH10BAC. Resulting bacmid DNA was used to generate a titered baculovirus stock for protein generation. The sequence of the encoded HSL conforms to Swissprot entry Q05469, with the additional C-terminal His6-tag. 2) Protein purification: Culture: 5.5 L, High 5 cells expressing human full length HSL-His^6, 48 hr., containing 25 μM E-64. Cell count: 1.78×10^10 cells/ml, 90% viable. Cells were thawed. On ice, cells were suspended in Base Buffer containing 10% glycerol, 25 mM Tris-Cl, 300 mM NaCl, 10 mM imidazole, 10 mM 2-mercaptoethanol, 2 μg pepstatin/ml, 2 μg leupeptin/ml, 2 μg antipain/ml, pH 8.0 at 4° C. in a final volume of 475 ml with 3.75×10^7 cells/ml. […] was done at 3×30 sec., Lubrol PX was added to 0.2% final concentration followed by stirring for 15 min. at 4° C. and centrifugation at 25 k×g, 60 min., 4° C. Soluble proteins were mixed with 60 ml of pre-washed and equilibrated Ni-NTA Agarose (Qiagen 30210) followed by tumbling end-over-end, 45 min., 4° C., centrifugation 1000 rpm 5 min and letting resin settle 5 min. Supernatant was removed, the resin washed in the centrifuge vessel using 5 volumes of Base Buffer containing 0.2% Lubrol PX. Centrifugation was done again, then the supernatant discarded. The resin was poured onto a 0.8 μm membrane in a disposable filter unit (Nalge 450-0080), and washed with 5 volumes of Base Buffer containing 0.2% Lubrol PX. It was then washed with 30 volumes of Base Buffer containing 60 mM imidazole pH 7.5 at 4° C. The protein was eluated with 5 volumes of 25 mM Tris-Cl, 300 mM NaCl, 200 mM imidazole, 10 mM 2-mercaptoethanol, pH 7.5 at 4° C. by tumbling resin with buffer end-over-end, 30 min., 4° C. The resin was captured on a 0.2 μm membrane disposable filter unit (Millipore SCGP U02 RE) and the eluate collected in the reservoir. The eluate was concentrated using a 30 k MWCO centrifugal filter device (Sartorius Vivascience Vivacell 100, VC1022), to 20 ml. It was then dialyzed overnight at 4° C., two times against 2 L of 10% glycerol, 25 mM Tris-Cl, 300 mM NaCl, 0.2 mM EDTA, 0.2 mM DTT, pH 7.5 at 4° C. The protein was filtered using a 0.22 μm disposable filter unit (Millipore SCGP00525). The protein concentration was calculated from absorbance at 280 nm, using 280=0.67 cm-1 mg-1. Yield was 235 mg, total. The protein was stored at −80° C.
Human Hormone-Sensitive Lipase (HSL) Enzyme Inhibition Assay:
HSL enzyme activity was measured by a colorimetric assay using 2,3-dimercapto-1-propanol tributyrate (Aldrich, St. Louis, Mo.) as a substrate. Typically, 1.5 mM 2,3-dimercapto-1-propanol tributyrate (DMPT) in 100 mM MOPS, pH 7.2, 0.2 mg/ml fatty acid-free BSA was prepared by sonication at 4° C. to homogenous suspension. Test compounds (2 mM stock in DMSO) were diluted 3 fold in series in DMSO. Compound solutions were diluted 24 fold in 1.5 mM DMPT containing solution and 18 ul per well was added to 384-well microplates (Corning Costar). Twelve microliters per well of human HSL (15 ug/ml) was added and the reaction mixture was incubated at 37° C. for 20 minutes. Six microliters of 12 mM dithio-bis-(2-nitrobenzoic acid) (DTNB) in DMSO plus 1.2% SDS and 0.6% Triton X-100 were added and the mixture was incubated at room temperature for 15 minutes. Product production was monitored by reading absorbance at 405 nm on an Envision Reader (PerkinElmer Life and Analytical Sciences, Shelton, Conn.).

Row | SMILES | IC50
1 | O=C1N(c2ccc(OC(F)(F)F)cc2)CCC12CCN(c1ccc(C(F)(F)F)cc1F)CC2 [Example 1, 8-(2-Fluoro-4-trifluoromethyl-phenyl)-2-(4-trifluoromethoxy-phenyl)-2,8-diaza-spiro[4.5]decan-1-one] | 920 nM
2 | O=C1N(c2ccc(OC(F)(F)F)cc2)CCC12CCN(c1cc(C(F)(F)F)ccc1F)CC2 [Example 2, 8-(2-Fluoro-5-trifluoromethyl-phenyl)-2-(4-trifluoromethoxy-phenyl)-2,8-diaza-spiro[4.5]decan-1-one] | 550 nM
3 | O=C1N(c2ccc(OC(F)(F)F)cc2)CCC12CCN(c1ccccc1F)CC2 [Example 3, 8-(2-Fluoro-phenyl)-2-(4-trifluoromethoxy-phenyl)-2,8-diaza-spiro[4.5]decan-1-one] | 310 nM
4 | O=C1N(c2ccc(OC(F)(F)F)cc2)CCC12CCN(c1cccc(OC(F)(F)F)c1)CC2 [Example 4, 8-(3-Trifluoromethoxy-phenyl)-2-(4-trifluoromethoxy-phenyl)-2,8-diaza-spiro[4.5]decan-1-one] | 630 nM
5 | O=C1N(c2ccc(OC(F)(F)F)cc2)CCC12CCN(c1ccccc1Cl)CC2 [Example 5, 8-(2-Chloro-phenyl)-2-(4-trifluoromethoxy-phenyl)-2,8-diaza-spiro[4.5]decan-1-one] | 710 nM
6 | COc1ccccc1N1CCC2(CC1)CCN(c1ccc(OC(F)(F)F)cc1)C2=O [Example 7, 8-(2-Methoxy-phenyl)-2-(4-trifluoromethoxy-phenyl)-2,8-diaza-spiro[4.5]decan-1-one] | 110 nM
7 | CCCn1cccc(N2CCC3(CC2)CCN(c2ccc(OC(F)(F)F)cc2)C3=O)c1=O [Example 12, 8-(2-Oxo-1-propyl-1,2-dihydro-pyridin-3-yl)-2-(4-trifluoromethoxy-phenyl)-2,8-diaza-spiro[4.5]decan-1-one] | 30 nM
8 | O=C1N(c2ccc(OC(F)(F)F)cc2)CCC12CCN(c1ccccc1O)CC2 [Example 13, 8-(2-Hydroxy-phenyl)-2-(4-trifluoromethoxy-phenyl)-2,8-diaza-spiro[4.5]decan-1-one] | 50 nM
9 | Cc1ccc(O)c(N2CCC3(CC2)CCN(c2ccc(OC(F)(F)F)cc2)C3=O)c1 [Example 14, 8-(2-Hydroxy-5-methyl-phenyl)-2-(4-trifluoromethoxy-phenyl)-2,8-diaza-spiro[4.5]decan-1-one] | 60 nM

Next, values leading:

Row | IC50 | SMILES
10 | 960 nM | O=C1N(c2ccc(OC(F)(F)F)cc2)CCC12CCN(c1c(F)cccc1F)CC2 [Example 6, 8-(2,6-Difluoro-phenyl)-2-(4-trifluoromethoxy-phenyl)-2,8-diaza-spiro[4.5]decan-1-one]
11 | 100 nM | COc1ccc(C)cc1N1CCC2(CC1)CCN(c1ccc(OC(F)(F)F)cc1)C2=O [Example 8, 8-(2-Methoxy-5-methyl-phenyl)-2-(4-trifluoromethoxy-phenyl)-2,8-diaza-spiro[4.5]decan-1-one]
12 | 110 nM | COc1ncccc1N1CCC2(CC1)CCN(c1ccc(OC(F)(F)F)cc1)C2=O [Example 9, 8-(2-Methoxy-pyridin-3-yl)-2-(4-trifluoromethoxy-phenyl)-2,8-diaza-spiro[4.5]decan-1-one]
13 | 240 nM | Cc1cnc(F)c(N2CCC3(CC2)CCN(c2ccc(OC(F)(F)F)cc2)C3=O)c1 [Example 10, 8-(2-fluoro-5-methylpyridin-3-yl)-2-(4-(trifluoromethoxy)phenyl)-2,8-diazaspiro[4.5]decan-1-one]
14 | 20 nM | Cn1cccc(N2CCC3(CC2)CCN(c2ccc(OC(F)(F)F)cc2)C3=O)c1=O [Example 11, 8-(1-methyl-2-oxo-1,2-dihydropyridin-3-yl)-2-(4-(trifluoromethoxy)phenyl)-2,8-diazaspiro[4.5]decan-1-one]
15 | 40 nM | O=C1N(c2ccc(OC(F)(F)F)cc2)CCC12CCN(c1cccnc1O)CC2 [Example 15, 8-(2-Hydroxy-pyridin-3-yl)-2-(4-trifluoromethoxy-phenyl)-2,8-diaza-spiro[4.5]decan-1-one]
16 | 900 nM | O=C1N(c2ccc(OC(F)(F)F)cc2)CCC12CCN(c1cccc(OCc3ccccc3)n1)CC2 [Example 16, 8-(6-Benzyloxy-pyridin-2-yl)-2-(4-trifluoromethoxy-phenyl)-2,8-diaza-spiro[4.5]decan-1-one]
17 | 250 nM | O=C1N(c2ccc(OC(F)(F)F)cc2)CCC12CCN(c1cccc(O)n1)CC2 [Example 17, 8-(6-Hydroxy-pyridin-2-yl)-2-(4-trifluoromethoxy-phenyl)-2,8-diaza-spiro[4.5]decan-1-one]
18 | 20 nM | C[C@H](Oc1ccc(N2CCC3(CCN(c4cccn(C)c4=O)CC3)C2=O)cc1)C(F)(F)F [Example 18, 8-(1-Methyl-2-oxo-1,2-dihydro-pyridin-3-yl)-2-[4-((S)-2,2,2-trifluoro-1-methyl-ethoxy)-phenyl]-2,8-diaza-spiro[4.5]decan-1-one]
